Test: recombinant barcode read abundance after kanamycin selection (control-corrected) (log10(CPM+1)); higher = more efficient recombination; sequences stand for … in AGTGCAGAGAAAATCGGCCAGTTTTCTCTGCCTGCAGTCCGCATGCCGT…AGATTTATGCAGCGGACTGCCTTTCTCCCAAAGTGATAAACCGGACAGTATCATGGACCGGTTTTCCCGGTAATCCGTATTTGCAAGGTTGGTTTCACT; site = the 11-nt target
How it was run: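 A vector carrying a T7-inducible recombinase and the last 73 bp of the bridge RNA received, by Gibson cloning, oligos encoding a promoter, target, barcode and the first 104 bridge RNA bases under J23119. The pooled constructs entered E. coli together with a donor plasmid by electroporation. Selection used chloramphenicol/ampicillin/kanamycin with 0.1 mM IPTG, with chloramphenicol/ampicillin LB agar as the control, each in two replicates. Recombination efficiency is the averaged, control-corrected counts-per-million of barcodes at recombinant junctions, reported as log10(CPM+1).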
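Also: IS621 recombinase and bridge RNA in Escherichia coli cells.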

With “ATTTGTACTTGGGTTCTAACCTGTTGCCT (site ATTTGAACTAG)” the “recombinant barcode read abundance (log10)” value was 0.0288.
For “ATTTGTACTTGGGTTCTAACCTGTTGCCT (site ATTTGCACTAG)”, the “recombinant barcode read abundance (log10)” value was 0.0709.
For “ATTTGTACTTGGGTTCTAACCTGTTGCCT (site ATTTGGACTAG)”, the “recombinant barcode read abundance (log10)” value was 0.
For “ATTTGTACTTGGGTTCTAACCTGTTGCCT (site ATTTGTACTAG)”, the “recombinant barcode read abundance (log10)” value was 0.293.
With “CAAACACCTTGGGTTCTAACCTGTTGCCT (site CAAACAACTAG)” the “recombinant barcode read abundance (log10)” value was 0.0738.
For “CAAACACCTTGGGTTCTAACCTGTTGCCT (site CAAACACCTAG)”, the “recombinant barcode read abundance (log10)” value was 1.46.
In the case of “CAAACACCTTGGGTTCTAACCTGTTGCCT (site CAAACAGCTAG)”, the “recombinant barcode read abundance (log10)” value is reported as 0.682.
With “CAAACACCTTGGGTTCTAACCTGTTGCCT (site CAAACATCTAG)” the “recombinant barcode read abundance (log10)” value was 0.287.
For “CAAACTACTTGGGTTCTAACCTGTTGCAC (site CAAACTACTGT)”, the “recombinant barcode read abundance (log10)” value was 0.556.
In the case of “CAAACTACTTGGGTTCTAACCTGTTGCAC (site CAAACTACTTA)”, the “recombinant barcode read abundance (log10)” value is reported as 0.0177.
With “CAAAGGGCTTGGGTTCTAACCTGTTGCAG (site CAAAAGGCTCT)” the “recombinant barcode read abundance (log10)” value was 1.17.
In the case of “CAAAGGGCTTGGGTTCTAACCTGTTGCAG (site CAAAGGGCTCT)”, the “recombinant barcode read abundance (log10)” value is reported as 2.29.
For “CAAAGTCCTTGGGTTCTAACCTGTTGCCT (site CAAAGTCCTAA)”, the “recombinant barcode read abundance (log10)” value was 0.013.
With “CAAAGTCCTTGGGTTCTAACCTGTTGCCT (site CAAAGTCCTAC)” the “recombinant barcode read abundance (log10)” value was 0.0449.
With “CAAAGTCCTTGGGTTCTAACCTGTTGCCT (site CAAAGTCCTAG)” the “recombinant barcode read abundance (log10)” value was 1.12.
For “CAAAGTCCTTGGGTTCTAACCTGTTGCCT (site CAAAGTCCTAT)”, the “recombinant barcode read abundance (log10)” value was 0.0828.
For “CAAAGTCCTTGGGTTCTAACCTGTTGCTT (site CAAAGTCCTAA)”, the “recombinant barcode read abundance (log10)” value was 0.437.
With “CAAAGTCCTTGGGTTCTAACCTGTTGCTT (site CAAAGTCCTAC)” the “recombinant barcode read abundance (log10)” value was 0.174.
In the case of “CAAAGTCCTTGGGTTCTAACCTGTTGCTT (site CAAAGTCCTAG)”, the “recombinant barcode read abundance (log10)” value is reported as 0.152.
For “CAAAGTCCTTGGGTTCTAACCTGTTGCTT (site CAAAGTCCTAT)”, the “recombinant barcode read abundance (log10)” value was 0.429.
With “CAACCGGCTTGGGTTCTAACCTGTTGCCT (site CAACCGACTAG)” the “recombinant barcode read abundance (log10)” value was 0.0354.
With “CAACCGGCTTGGGTTCTAACCTGTTGCCT (site CAACCGCCTAG)” the “recombinant barcode read abundance (log10)” value was 0.255.
For “CAACCGGCTTGGGTTCTAACCTGTTGCCT (site CAACCGGCTAG)”, the “recombinant barcode read abundance (log10)” value was 0.986.
For “CAACCGGCTTGGGTTCTAACCTGTTGCCT (site CAACCGTCTAG)”, the “recombinant barcode read abundance (log10)” value was 0.111.
In the case of “CAAGGGCCTTGGGTTCTAACCTGTTGCCT (site CAAAGGCCTAG)”, the “recombinant barcode read abundance (log10)” value is reported as 0.423.
In the case of “CAAGGGCCTTGGGTTCTAACCTGTTGCCT (site CAACGGCCTAG)”, the “recombinant barcode read abundance (log10)” value is reported as 0.0504.
With “CAAGGGCCTTGGGTTCTAACCTGTTGCCT (site CAAGGGCCTAG)” the “recombinant barcode read abundance (log10)” value was 0.701.
In the case of “CAAGGGCCTTGGGTTCTAACCTGTTGCCT (site CAATGGCCTAG)”, the “recombinant barcode read abundance (log10)” value is reported as 0.375.
In the case of “CAAGTAGCTTGGGTTCTAACCTGTTGCCT (site CAAGTAGCTAG)”, the “recombinant barcode read abundance (log10)” value is reported as 0.591.
For “CAAGTAGCTTGGGTTCTAACCTGTTGCCT (site CAAGTCGCTAG)”, the “recombinant barcode read abundance (log10)” value was 0.123.
With “CAAGTAGCTTGGGTTCTAACCTGTTGCCT (site CAAGTGGCTAG)” the “recombinant barcode read abundance (log10)” value was 0.183.
With “CAAGTAGCTTGGGTTCTAACCTGTTGCCT (site CAAGTTGCTAG)” the “recombinant barcode read abundance (log10)” value was 0.0368.
For “CAATAGACTTGGGTTCTAACCTGTTGCCT (site CAATAGACTAG)”, the “recombinant barcode read abundance (log10)” value was 1.19.
In the case of “CAATAGACTTGGGTTCTAACCTGTTGCCT (site TGCACCTCTTA)”, the “recombinant barcode read abundance (log10)” value is reported as 0.0564.
In the case of “CAATCACCTTGGGTTCTAACCTGTTGCTT (site CAAACACCTAA)”, the “recombinant barcode read abundance (log10)” value is reported as 0.109.
For “CAATCACCTTGGGTTCTAACCTGTTGCTT (site CAACCACCTAA)”, the “recombinant barcode read abundance (log10)” value was 0.461.
For “CAATCACCTTGGGTTCTAACCTGTTGCTT (site CAAGCACCTAA)”, the “recombinant barcode read abundance (log10)” value was 0.027.
For “CAATCACCTTGGGTTCTAACCTGTTGCTT (site CAATCACCTAA)”, the “recombinant barcode read abundance (log10)” value was 0.794.
In the case of “CAATCCTCTTGGGTTCTAACCTGTTGCTT (site CAATCCTCTAA)”, the “recombinant barcode read abundance (log10)” value is reported as 0.664.
In the case of “CAATCCTCTTGGGTTCTAACCTGTTGCTT (site CCATCCTCTAA)”, the “recombinant barcode read abundance (log10)” value is reported as 0.
With “CAATCGTCTTGGGTTCTAACCTGTTGCGG (site CAATCGTCTCC)” the “recombinant barcode read abundance (log10)” value was 1.68.
For “CAATCGTCTTGGGTTCTAACCTGTTGCGG (site CAGCCGTCTCC)”, the “recombinant barcode read abundance (log10)” value was 0.166.
In the case of “CAATGGTCTTGGGTTCTAACCTGTTGCAT (site CAATGGTCTAA)”, the “recombinant barcode read abundance (log10)” value is reported as 0.409.
With “CAATGGTCTTGGGTTCTAACCTGTTGCAT (site CAATGGTCTAC)” the “recombinant barcode read abundance (log10)” value was 0.476.
With “CAATGGTCTTGGGTTCTAACCTGTTGCAT (site CAATGGTCTAG)” the “recombinant barcode read abundance (log10)” value was 0.54.
With “CAATGGTCTTGGGTTCTAACCTGTTGCAT (site CAATGGTCTAT)” the “recombinant barcode read abundance (log10)” value was 2.71.
For “CAATTGTCTTGGGTTCTAACCTGTTGCGT (site CAATTGTCTAC)”, the “recombinant barcode read abundance (log10)” value was 3.47.
For “CAATTGTCTTGGGTTCTAACCTGTTGCGT (site TAATTGTCTAC)”, the “recombinant barcode read abundance (log10)” value was 0.151.
With “CACAAGTCTTGGGTTCTAACCTGTTGCTT (site CACAAGTCTAA)” the “recombinant barcode read abundance (log10)” value was 0.474.
For “CACAAGTCTTGGGTTCTAACCTGTTGCTT (site CGCACGTCTAA)”, the “recombinant barcode read abundance (log10)” value was 0.0654.
With “CACAATACTTGGGTTCTAACCTGTTGCCT (site CACAATACTAG)” the “recombinant barcode read abundance (log10)” value was 1.03.
For “CACAATACTTGGGTTCTAACCTGTTGCCT (site GCATGACCTCT)”, the “recombinant barcode read abundance (log10)” value was 0.00751.
In the case of “CACACAGCTTGGGTTCTAACCTGTTGCCT (site CACAAAGCTAG)”, the “recombinant barcode read abundance (log10)” value is reported as 0.082.
With “CACACAGCTTGGGTTCTAACCTGTTGCCT (site CACACAGCTAG)” the “recombinant barcode read abundance (log10)” value was 0.559.
In the case of “CACAGGGCTTGGGTTCTAACCTGTTGCGG (site CACAGGGCTCC)”, the “recombinant barcode read abundance (log10)” value is reported as 2.39.
In the case of “CACAGGGCTTGGGTTCTAACCTGTTGCGG (site CACATGGCTCG)”, the “recombinant barcode read abundance (log10)” value is reported as 0.344.
For “CACATCTCTTGGGTTCTAACCTGTTGCCT (site CACATATCTAT)”, the “recombinant barcode read abundance (log10)” value was 0.0495.
For “CACATCTCTTGGGTTCTAACCTGTTGCCT (site CACATCTCTAG)”, the “recombinant barcode read abundance (log10)” value was 1.38.
For “CACATTCCTTGGGTTCTAACCTGTTGCCT (site AACATTCCTAG)”, the “recombinant barcode read abundance (log10)” value was 0.158.
For “CACATTCCTTGGGTTCTAACCTGTTGCCT (site CACATTCCTAG)”, the “recombinant barcode read abundance (log10)” value was 0.17.
For “CACATTCCTTGGGTTCTAACCTGTTGCCT (site GACATTCCTAG)”, the “recombinant barcode read abundance (log10)” value was 0.141.
With “CACATTCCTTGGGTTCTAACCTGTTGCCT (site TACATTCCTAG)” the “recombinant barcode read abundance (log10)” value was 0.06.
With “CACCACTCTTGGGTTCTAACCTGTTGCCT (site AACCACTCTAG)” the “recombinant barcode read abundance (log10)” value was 0.545.
For “CACCACTCTTGGGTTCTAACCTGTTGCCT (site CACCACTCTAG)”, the “recombinant barcode read abundance (log10)” value was 1.56.
In the case of “CACCACTCTTGGGTTCTAACCTGTTGCCT (site GACCACTCTAG)”, the “recombinant barcode read abundance (log10)” value is reported as 0.108.
For “CACCACTCTTGGGTTCTAACCTGTTGCCT (site TACCACTCTAG)”, the “recombinant barcode read abundance (log10)” value was 0.195.
